# Marks after values point to notes of the source that are not given here.
# Key:
# Format in all cases: in vivo
# Sprague-Dawley rats [1] = experiment: Psychotropic drug class prediction by discriminant analysis of effects on rat sleep-waking behaviour; details: I.P.
# Protocol: The effect profiles for these compounds at active doses were subjected to a discriminant analysis over these 6 psychoactive classes with placebo being added as an extra class. The resulting discriminant function was used to predict the pharmaco-therapeutic application area for gepirone alone and after co-administration with mirtazapine. Finally, the effect profiles of gepirone, mirtazapine, and the combination of gepirone and mirtazapine were calculated on the basis of vectors derived from the changes in sleep-wake organisation as shown in tables above. For each dose, the probability that the compound belongs to one of 7 defined classes was calculated.
# mice = experiment: Defensive (marble) burying test in mice; details: mouse, administered alone, S.C., pre-treatment 30 min
# Excerpt: Marble burying has been developed and validated as a pre-clinical assay of potential anxiolytic activity (Andrews and Broekkamp (1993). Procedures to identify anxiolytic or anxiogenic agents. In Behavioural Neuroscience, ed. A Sahgal, pp. 37-54. IRL Press, Oxford). The marble burying test places a naive mouse into a novel environment containing 25 marbles (arranged on top of a saw dust surface). A reduction in the number of marbles buried by the mouse has been hypothesised to be an anxiolytic-like/anti-depressant-like effect.
# A further series of three separate experiments were conducted during which three single doses of mirtazapine (0.3, 1, 3 mg.kg^−1) were co-administered S.C. with a range of S.C. gepirone doses (0, 0.1, 0.3, 1, 3 mg.kg^−1).
# Sprague-Dawley rats [2] = experiment: EEG sleep-waking behaviour test in rats; details: rat, I.P., change over control
# Protocol: The aim of this test was to characterise the effects on rat sleep-waking behaviour of gepirone alone and of gepirone after co-administration with mirtazapine. To this end additionally the effects of mirtazapine on it own were investigated. Sleep-waking behaviour was analysed by using electroencephalographic (EEG) recordings, electromyographic (EMG) recordings, and by recording a movement index. On the basis of these signals sleep-waking behaviour was automatically classified per 2 second periods into 6 classes: active waking, passive waking, light sleep, deep sleep, intermediate stage sleep and REM sleep (Ruigt et al. A large scale automated system for rat sleep staging. I. Methodology and technical aspects. Electroenceph. and Clin. Neurophysiol.; 1989; 73:52-64). Each experiment is performed simultaneously on 32 adult male Sprague-Dawley rats (Harlan Olac, Bicester, UK, weighing […]), subdivided into four treatment groups. Throughout the whole experiment the animals stay in recording cages and are only taken out to be injected with vehicle or test compound(s). Each experiment contains three sessions. The first session (“test session”), commencing at 10:00 AM with a variable duration of 2-5 hours, serves as adaptation period and is used to assess the quality of the EEG and EMG signals recorded. The second and third sessions both start at 2:30 PM on two consecutive days and have a duration of 15.5 hours each. At the start of the second session all groups receive a vehicle treatment, at the start of the third session all groups receive their test compound(s). One of the treatment groups usually receives the vehicle treatment in both sessions to serve as a baseline for the other groups in the experiment. Separate experiments were done in which different single I.P. administered doses of either gepirone (1.0, 3.0, 10.0 mg/kg), or mirtazapine (2.2, 4.6, 10 mg/kg), or mirtazapine (2.2 mg/kg) in combination with gepirone (1.0, 3.0, 10 mg/kg) were tested. Gepirone was dissolved in 0.9% NaCl m/v in water (saline); mirtazapine was dissolved in 5% m/v Mulgofen (EL 719, GAF) in saline (=0.9% m/v NaCl in water). The drug-induced changes in sleep waking behaviours after I.P. administration of mirtazapine, gepirone, and mirtazapine in combination with gepirone are presented in Tables II, III and IV. […]
# [3] = gepir 1.0 mg/kg, 0 to 3 hours after drug injection
# [4] = gepir 1.0 mg/kg, 3 to 6 hours after drug injection
# [5] = gepir 1.0 mg/kg, 9 to 15 hours after drug injection
# [6] = gepir 3.0 mg/kg, 0 to 3 hours after drug injection
# [7] = gepir 3.0 mg/kg, 3 to 6 hours after drug injection
# [8] = gepir 3.0 mg/kg, 9 to 15 hours after drug injection
# [9] = gepir 10.0 mg/kg, 0 to 3 hours after drug injection
# [10] = gepir 10.0 mg/kg, 3 to 6 hours after drug injection
# [11] = gepir 10.0 mg/kg, 9 to 15 hours after drug injection
structure (smiles),measurement,setting,value
"CC1(C)CC(=O)N(CCCCN2CCN(c3ncccn3)CC2)C(=O)C1 [Gepirone, gepirone]",Probability score AC (anticonvulsant),Sprague-Dawley rats [1]; gepirone 1.0 mg/kg,7%
same,Probability score AD (antidepressant),Sprague-Dawley rats [1]; gepirone 1.0 mg/kg,1%
same,Probability score APS (antipsychotic),Sprague-Dawley rats [1]; gepirone 1.0 mg/kg,31%
same,Probability score AXL (anxiolytic),Sprague-Dawley rats [1]; gepirone 1.0 mg/kg,6%
same,Probability score HYP (hypnotic),Sprague-Dawley rats [1]; gepirone 1.0 mg/kg,20%
same,Probability score PLAC (placebo),Sprague-Dawley rats [1]; gepirone 1.0 mg/kg,35%
same,Probability score STIM (stimulant),Sprague-Dawley rats [1]; gepirone 1.0 mg/kg,0%
same,Probability score AC (anticonvulsant),Sprague-Dawley rats [1]; gepirone 3.0 mg/kg,29%
same,Probability score AD (antidepressant),Sprague-Dawley rats [1]; gepirone 3.0 mg/kg,28%
same,Probability score APS (antipsychotic),Sprague-Dawley rats [1]; gepirone 3.0 mg/kg,14%
same,Probability score AXL (anxiolytic),Sprague-Dawley rats [1]; gepirone 3.0 mg/kg,15%
same,Probability score HYP (hypnotic),Sprague-Dawley rats [1]; gepirone 3.0 mg/kg,9%
same,Probability score PLAC (placebo),Sprague-Dawley rats [1]; gepirone 3.0 mg/kg,6%
same,Probability score STIM (stimulant),Sprague-Dawley rats [1]; gepirone 3.0 mg/kg,0%
same,Probability score AC (anticonvulsant),Sprague-Dawley rats [1]; gepirone 10.0 mg/kg,6%
same,Probability score AD (antidepressant),Sprague-Dawley rats [1]; gepirone 10.0 mg/kg,16%
same,Probability score APS (antipsychotic),Sprague-Dawley rats [1]; gepirone 10.0 mg/kg,3%
same,Probability score AXL (anxiolytic),Sprague-Dawley rats [1]; gepirone 10.0 mg/kg,63%
same,Probability score HYP (hypnotic),Sprague-Dawley rats [1]; gepirone 10.0 mg/kg,0%
same,Probability score PLAC (placebo),Sprague-Dawley rats [1]; gepirone 10.0 mg/kg,0%
same,Probability score STIM (stimulant),Sprague-Dawley rats [1]; gepirone 10.0 mg/kg,12%
same,ED50 marble burying,mice,2.16 mg/kg
same,Latency from time of injection to Deep sleep,Sprague-Dawley rats [2]; [3],24%
same,Latency from time of injection to REM sleep,Sprague-Dawley rats [2]; [3],3%
same,Median duration Active waking,Sprague-Dawley rats [2]; [3],−58* %
same,Median duration Deep sleep,Sprague-Dawley rats [2]; [3],−2%
same,Median duration Intermediate sleep,Sprague-Dawley rats [2]; [3],−11%
same,Median duration Light sleep,Sprague-Dawley rats [2]; [3],23%
same,Median duration Passive waking,Sprague-Dawley rats [2]; [3],13%
same,Median duration REM sleep,Sprague-Dawley rats [2]; [3],4%
same,Median duration Active waking,Sprague-Dawley rats [2]; [4],6%
same,Median duration Deep sleep,Sprague-Dawley rats [2]; [4],−5%
same,Median duration Intermediate sleep,Sprague-Dawley rats [2]; [4],32%
same,Median duration Light sleep,Sprague-Dawley rats [2]; [4],8%
same,Median duration Passive waking,Sprague-Dawley rats [2]; [4],5%
same,Median duration REM sleep,Sprague-Dawley rats [2]; [4],20%
same,Median duration Deep sleep,Sprague-Dawley rats [2]; [5],2%
same,Median duration Intermediate sleep,Sprague-Dawley rats [2]; [5],−2%
same,Median duration Light sleep,Sprague-Dawley rats [2]; [5],14%
same,Median duration Passive waking,Sprague-Dawley rats [2]; [5],38%
same,Median duration REM sleep,Sprague-Dawley rats [2]; [5],−12%
same,Median duration Active waking,Sprague-Dawley rats [2]; gepir 1.0 mg/kg,−16%
same,Latency from time of injection to Deep sleep,Sprague-Dawley rats [2]; [6],24%
same,Latency from time of injection to REM sleep,Sprague-Dawley rats [2]; [6],360* %
same,Median duration Active waking,Sprague-Dawley rats [2]; [6],−8%
same,Median duration Deep sleep,Sprague-Dawley rats [2]; [6],−21%
same,Median duration Intermediate sleep,Sprague-Dawley rats [2]; [6],−76%
same,Median duration Light sleep,Sprague-Dawley rats [2]; [6],8%
same,Median duration Passive waking,Sprague-Dawley rats [2]; [6],156* %
same,Median duration REM sleep,Sprague-Dawley rats [2]; [6],−83* %
same,Median duration Active waking,Sprague-Dawley rats [2]; [7],30%
same,Median duration Deep sleep,Sprague-Dawley rats [2]; [7],−6%
same,Median duration Intermediate sleep,Sprague-Dawley rats [2]; [7],64* %
same,Median duration Light sleep,Sprague-Dawley rats [2]; [7],−2%
same,Median duration Passive waking,Sprague-Dawley rats [2]; [7],13%
same,Median duration REM sleep,Sprague-Dawley rats [2]; [7],−3%
same,Median duration Active waking,Sprague-Dawley rats [2]; [8],−37* %
same,Median duration Deep sleep,Sprague-Dawley rats [2]; [8],−7%
same,Median duration Intermediate sleep,Sprague-Dawley rats [2]; [8],36%
same,Median duration Light sleep,Sprague-Dawley rats [2]; [8],67%
same,Median duration Passive waking,Sprague-Dawley rats [2]; [8],55%
same,Median duration REM sleep,Sprague-Dawley rats [2]; [8],40%
same,Latency from time of injection to Deep sleep,Sprague-Dawley rats [2]; [9],268%
same,Latency from time of injection to REM sleep,Sprague-Dawley rats [2]; [9],673* %
same,Median duration Active waking,Sprague-Dawley rats [2]; [9],72%
same,Median duration Deep sleep,Sprague-Dawley rats [2]; [9],−63* %
same,Median duration Intermediate sleep,Sprague-Dawley rats [2]; [9],−100* %
same,Median duration Light sleep,Sprague-Dawley rats [2]; [9],−2%
same,Median duration Passive waking,Sprague-Dawley rats [2]; [9],198%
same,Median duration REM sleep,Sprague-Dawley rats [2]; [9],−100* %
same,Median duration Active waking,Sprague-Dawley rats [2]; [10],−18%
same,Median duration Deep sleep,Sprague-Dawley rats [2]; [10],−19%
same,Median duration Intermediate sleep,Sprague-Dawley rats [2]; [10],56%
same,Median duration Light sleep,Sprague-Dawley rats [2]; [10],35%
same,Median duration Passive waking,Sprague-Dawley rats [2]; [10],−40%
same,Median duration REM sleep,Sprague-Dawley rats [2]; [10],−50* %
same,Median duration Active waking,Sprague-Dawley rats [2]; [11],−23* %
same,Median duration Deep sleep,Sprague-Dawley rats [2]; [11],−5%
same,Median duration Intermediate sleep,Sprague-Dawley rats [2]; [11],108* %
same,Median duration Light sleep,Sprague-Dawley rats [2]; [11],23%
same,Median duration Passive waking,Sprague-Dawley rats [2]; [11],7%
same,Median duration REM sleep,Sprague-Dawley rats [2]; [11],64%
